Results as given in patent US20060269482A1 (priority 2005, published 2006).

Tests used:
HCT116 cells = test: 5-day proliferation assay, cell growth inhibition; type: cell-based; conditions: Homo sapiens, HCT-116, 120 h; HCT116, 5-day proliferation assay
[1] = test system: Rb phosphorylation in rat PBMCs; test: Rb phosphorylation in ex vivo PMA-stimulated rat PBMCs after a single oral dose; conditions: single oral dose 80 mg/kg
Experimental: The dose selected was 80 mg/kg, determined to be an efficacious dose in this animal model. Tumor growth inhibition in the MTLn3 xenograft model after 2 to 3 weeks of oral dosing at 80 mg/kg once weekly averaged 90% with 2/10 complete regressions. COMPOUND A was dosed on day 10 post implantation of cells, at which time the tumors were 100-200 mm^3 in size. In this pharmacokinetic/pharmacodynamic experiment, plasma and tumors were collected at 1, 2, 6, 24 and 72 hours post dosing of a single oral dose of COMPOUND A. Tumors were removed and immediately snap frozen in liquid nitrogen and stored at −80° C. until drug concentration analysis. […] Concentrations of COMPOUND A in plasma and tumors were determined in the same three animals per time point. […] Peripheral blood mononuclear cells (PBMCs) were isolated, stimulated ex vivo with mitogen and analyzed by Western blot as described below. […]
PBMCs were collected by transferring the cells, including attached cells and those in suspension, into 50 ml tubes. […] Samples were sonicated on ice for 30 seconds, clarified by centrifugation at 16,000×g for 10 minutes at 4° C. and protein concentrations determined using Non-Interfering Protein Assay Kit (Geno Technology Incorporated, Maplewood, Mo.). […] For Western blotting, total Rb was detected using antibody from Pharmingen (BD Bioscience, San Diego, Calif.) at a dilution of 1:2000. […]

MTLn3 xenograft = test: Tumor growth inhibition in the MTLn3 xenograft model; type: in vivo, rat; conditions: 2 to 3 weeks oral dosing at 80 mg/kg once weekly
Experimental: Female Fischer rats obtained from Charles River Laboratories were used when they were ˜13-15 weeks old and weighed ˜150 grams. All animals were examined prior to the initiation of studies to ensure that they were healthy and acclimated to the laboratory environment. Autoclaved water and irradiated food were provided ad libitum, and the animals were maintained in a 12 hour light and dark cycle. MTLn3 cells were grown in RPMI 1640 supplemented with 10% heat-inactivated Fetal Bovine Serum (HI-FBS; GIBCO/Invitrogen, Carlsbad, Calif.) and 2 mM L-glutamine (GIBCO/Invitrogen) and maintained at 37° C. at 5% CO2. The MTLn3 cells were obtained from Hoffmann-La Roche Inc., Nutley, N.J. Approximately 1×10^6 cells/0.2mls/rat in PBS (Phosphate Buffered Saline) Phenol-red free, Ca^+2 and Mg^+2-free were implanted subcutaneously in the right mammary fat pad. The dose selected was 80 mg/kg, determined to be an efficacious dose in this animal model. Tumor growth inhibition in the MTLn3 xenograft model after 2 to 3 weeks of oral dosing at 80 mg/kg once weekly averaged 90% with 2/10 complete regressions. […] Concentrations of COMPOUND A in plasma and tumors were determined in the same three animals per time point. […] Peripheral blood mononuclear cells (PBMCs) were isolated, stimulated ex vivo with mitogen and analyzed by Western blot as described below.

IC50 (HCT116 cells): 100 nM
IC90 (HCT116 cells): 200 nM
SMILES: COc1ccc(F)c(F)c1C(=O)c1cnc(NC2CCN(S(C)(=O)=O)CC2)nc1N [COMPOUND A, [4-amino-2-(1-methanesulfonylpiperidin-4-ylamino)pyrimidin-5-yl]-(2,3-difluoro-6-methoxyphenyl)methanone]
Total Rb levels in PBMCs ([1]; female Fischer rats): did not appear to decrease
Rb phosphorylation (serine 795) in ex vivo stimulated PBMCs ([1]; female Fischer rats, 2, 6 and up to 24 hours post treatment, Western blot): decrease in Rb phosphorylation
Tumor growth inhibition (MTLn3 xenograft): 90%
complete regressions (MTLn3 xenograft): 2/10
